Data set [1] in a line: Intrinsic stability of cyclic peptides in plasma. The class given is in vitro ADME. The settings on record: 0.1 μM in human plasma, 2 h at 37°C, then rhGBA1 10 nM 30 min, 4-MU activity read-out; n=3, technical duplicates. As to the method:
Specifically, high concentrations of all peptides (10–1 μM) led to enzyme binding but also GBA1 inhibition after short incubations (0 to 30 minutes). […] To discard potential degradation of D8 and D12 during plasma experiments, the peptides were incubated in plasma at 0.1 μM for 2 hours, followed by the addition of rhGBA1 to measure its activity. This was compared to controls where D8 and D12 were added to plasma and directly tested for GBA1 activity.
Selective Cyclic Peptide Ligands as GBA1 Stabilizers Katzy et al.
Figure S10. Cerezyme (10 nM) stability in McIlvaine buffer pH 5.2 or in plasma of a healthy individual. GBA1 activity measured in n=3 replicates, in technical duplicates.
Figure S11. Intrinsic compounds stability of cyclic peptides D8 and D12 (0.1 µM) in plasma. rhGBA1 (10 nM) was added to compounds pre-incubated in plasma for 2h at 37°C or readily dissolved in DMSO, and incubated for 30 min, after which 4-MU activity was measured. Error ranges depict standard deviations from n=3 replicates, measured in technical duplicates.
Table S1. IC50 values for GBA1 inhibition in fibroblast lysates. Cells were treated with the peptides at increasing concentrations for 16 h, washed with PBS and homogenized. Reported values are mean ± standard deviation from 3 technical triplicates. N.D.: not determined.
Peptide GBA1 in fibroblast lysates
(1 picture or pasted object on this page, not shown here)

For the next data set, the system named is Human dermal fibroblasts. The data set is described as follows: Toxicity / morphology of human dermal fibroblasts. The class given is cell-based. The settings on record: 3 hours, peptide concentrations above 10 μM (10 and 100 μM). How it is done:
We further investigated GBA1 inhibition in cells. Human dermal fibroblasts were initially incubated with peptide concentrations ranging from 0.1 μM (from 0.001 μM for L4, D1 and D12) to 100 μM of each cyclic peptide for […]. […] To further confirm the inability of these peptides to cross the cell membrane, we conducted in situ competitive activity-based protein profiling (cABPP) experiments using RAW 264.7 monocyte/macrophage-like cells. […] RAW 264.7 cells were then treated with increasing concentrations of cyclic peptides (0, 0.1, 1, 10, and 100 μM) for 4 hours, followed by exposure to a cell-penetrant Bodipy red broad spectrum GBA activity-based probe (ABP), JJB75[58] at 10 nM for 2 hours (Fig. S5 for chemical structures, ESI ^†). […] This cABPP experiment further confirms that the peptides are unable to cross the cell membrane (Fig. S6, ESI ^†).

Positions of bridges follow the written chain, without caps; N, C: chain ends. Non-standard residues stand in square brackets, D forms with d. Residues, ends and D or L forms follow the SMILES beside them.

`CC(C)C[C@H](NC(=O)[C@@H](NC(=O)[C@H](CCCNC(=N)N)NC(=O)[C@@H]1CSCC(=O)N[C@H](Cc2ccc(O)cc2)C(=O)N[C@@H]([C@@H](C)O)C(=O)N2CCC[C@H]2C(=O)NCC(=O)N[C@@H](Cc2ccc(O)cc2)C(=O)N[C@@H](C(C)C)C(=O)N[C@@H](Cc2ccc(O)cc2)C(=O)N1)C(C)C)C(=O)N[C@@H](CCCCN)C(=O)N[C@@H](Cc1ccc(O)cc1)C(=O)N[C@@H](CS)C(N)=O` [D8] ({CH2CO}-[dY]TPGYVYCRVLKYC-NH2; thioether N-8): the “peptide stability in plasma (inhibitory activity after pre-incubation)” value in data set [1] is recorded as “retained their inhibitory activity against rhGBA1”. The “toxicity to the cells (morphology)” value in the data set with Human dermal fibroblasts is “still attached and otherwise looked healthy”.

On to `CC(C)C[C@@H]1NC(=O)CNC(=O)[C@H](CC(C)C)NC(=O)[C@@H](Cc2ccc(O)cc2)NC(=O)CSC[C@@H](C(N)=O)NC(=O)[C@H](CO)NC(=O)[C@H](CCCCN)NC(=O)[C@H](CC(C)C)NC(=O)[C@H](Cc2ccccc2)NC(=O)[C@H](CCCNC(=N)N)NC(=O)[C@H](Cc2ccc(O)cc2)NC(=O)[C@H](Cc2c[nH]c3ccccc23)NC1=O` [D12] ({CH2CO}-[dY]LGLWYRFLKSC-NH2; thioether N-12), for which the “peptide stability in plasma (inhibitory activity after pre-incubation)” value in data set [1] is reported as “retained their inhibitory activity against rhGBA1”. For the same compound, the “toxicity to the cells (morphology)” value in the data set on Human dermal fibroblasts was “still attached and otherwise looked healthy”.

Source of the values: article PMC11808397, “Development of selective nanomolar cyclic peptide ligands as GBA1 enzyme stabilisers” (RSC Chemical Biology, 2025).
